Experimental data as given in publication PMC9546217, “Exploring novel nitrofuranyl sulfonohydrazides as anti‐Leishmania and anti‐cancer agents: Synthesis, in vitro efficacy and hit identification” (Chemical Biology & Drug Design, 2022).
Where two headings read alike, the source gives them in different places.

Columns and labels:
[1] = tested on: L. donovani strain 1S amastigotes; experiment: Anti-amastigote assay (intramacrophage, THP-1 host, resazurin); type: cell-based; details: for IC50: L. donovani 1S, read-out: 1S IC50 ± SD, Amastigote; for Selectivity index SI4: L. donovani 1S: IC50 THP‐1/IC50 amastigote; for Selectivity index SI3: L. donovani 1S: IC50 Vero/IC50 amastigote; for Specificity index SpI2: L. donovani 1S: IC50 promastigote/IC50 amastigote
Method: (§1) The activities of synthesized compounds against the intramacrophage parasites of the three Leishmania strains were evaluated using a modified, resazurin‐based method (Jain et al., [2012]; Njanpa et al., [2021]). Suspension cultures of human acute monocytic leukemia (THP‐1) cells were maintained in RPMI‐1640 medium (Sigma Aldrich) supplemented with 10% FBS and 1% penicillin–streptomycin, at 37°C and 5% CO2 in a humidified atmosphere. Duplicate 96‐well plates (for respective anti‐amastigote and cytotoxicity assays) were seeded with 200 μl of a 2.5 × 10^5 cells/ml suspension treated with 25 ng/ml phorbol 12‐myristate 13‐acetate (PMA), followed by 48‐h incubation to promote differentiation into adherent macrophages.
(§2) For the anti‐amastigote assay, differentiated plates were carefully washed with PBS, followed by the addition of 200 μl of stationary phase promastigotes in RPMI 1640 medium with 2% FBS. An MOI of 30:1 was used for all three Leishmania strains. The parasite‐treated plates were incubated for 24 h at 32°C (L. major) or 37°C (L. donovani) and 5% CO2 to promote infection of the macrophages. […] Blanks were represented by growth medium without cells, as well as parasite‐free THP‐1 cells. The treated plates were incubated for 72 h.
(§3) After incubation, the plates were gently washed three times with PBS to remove any remaining extracellular parasites. The wells were then treated with 20 μl of 0.05% sodium dodecyl sulfate in PBS for 30 s to lyse the host macrophages. Lysis was terminated by adding 180 μl promastigote growth medium with 10% FBS. To initiate the resazurin assay, 10 μl of resazurin solution (0.025% in PBS) was added to all wells and the plates were incubated for 24 h at 32°C (L. major) or 37°C (L. donovani) and 5% CO2. Absorbance measurements, calculations, and IC50 determinations were performed as described for the antipromastigote assay (Supinfo S1).

[2] = tested on: L. donovani strain 9515 amastigotes; experiment: as above; type: cell-based; details: for IC50: L. donovani 9515, read-out: 9515 IC50 ± SD, Amastigote; for Selectivity index SI6: L. donovani 9515: IC50 THP‐1/IC50 amastigote; for Selectivity index SI5: L. donovani 9515: IC50 Vero/IC50 amastigote; for Specificity index SpI3: L. donovani 9515: IC50 promastigote/IC50 amastigote
Method: as §1, §2, §3

[3] = tested on: L. major strain IR‐173 amastigotes; experiment: as above; type: cell-based; details: for IC50: read-out: Antileishmanial activity, IC50 ± SD, Amastigote; for Specificity index SpI1: L. major IR‐173: IC50 promastigote/IC50 amastigote; for Selectivity index SI2: L. major: IC50 THP‐1/IC50 amastigote
Method: as §1, §2, §3

A375 melanoma cells = experiment: Anticancer assay (resazurin); type: cell-based, human; details: for IC50: n = 3, read-out: Anticancer activity, IC50 ± SD, A375
Method: (§4) The anticancer activities of synthesized compounds were evaluated using a resazurin‐based assay (Czekanska, [2011]). Accordingly, a screening method similar to that of the cytotoxicity assay was used to screen for anticancer activity, using human melanoma (A375), promyelocytic leukemia (Clone 15 HL‐60), lung cancer (A549), and breast cancer (MCF7) cells. The culture and assay methods are provided in the Supinfo S1.
(§5) The potential anticancer activities of synthesized compounds were screened using the resazurin assay. ^5 Breast adenocarcinoma (MCF7, ATCC® HTB-22™) and human melanoma (A375, ATCC® CRL-1619™) cells were cultured in Hyclone Dulbecco's modified Eagle’s medium with high glucose (Separations) supplemented with 10 % fetal bovine serum (FBS) (Thermofisher Scientific) and 1 % L-glutamine, penicillin-streptomycin and non-essential amino acids (Lonza). Human lung carcinoma (A549, ATCC®, CCL-185™) cells were cultured in Ham’s F12K medium supplemented with 10% FBS and 1% L-glutamine, penicillin-streptomycin and non-essential amino acids. Human promyelocytic leukemia (Clone 15 HL-60, ATCC® CRL-1946™) cells were cultured in RPMI-1640 medium (Sigma Aldrich) supplemented with 10% FBS and 1% penicillin-streptomycin. The cell lines were maintained in a humidified atmosphere at 37 °C and 5% CO2.
(§6) For the resazurin assay, 96 well plates were prepared with 100 μL of 100 000 cells/mL MCF7 cell suspension, 100 μL of 50 000 cells/mL A375 cell suspension, 100 μL of 25 000 cells/mL A549 cell suspension, or 50 μL of 50 000 cells/mL HL-60 cell suspension. The MCF7, A375 and A549 cell plates were incubated for 24 hours to allow adherence of the cells to the plate surface, after which the growth medium is replaced with 100 μL medium containing compounds. […] The cell lines were treated with: (i) parthenolide (Sigma Aldrich) (positive control); (ii) growth medium and solvent (negative control to compensate for possible solvent effects); (iii) growth medium and experimental compound solutions. […] Blanks contained growth medium without cells. The treated plates were incubated for 48 hours.
(§7) To initiate the resazurin assay, 50 μL of sterile-filtered resazurin sodium salt (Sigma Aldrich) solution (0.01 % in PBS) was added and the plates incubated for 2 hours (MCF7, A375 and A549 cells) or 24 hours (HL-60 cells). Absorbance was measured at 570 and 600 nm using the Thermofisher Scientific GO Multiscan plate reader. Data analysis was performed for each biological replicate using SkanIt 4.0 Research Edition software. Further data analysis, calculations and IC50 determinations were identical to that of the antileishmanial and cytotoxicity assays.
(§8) For the final IC50 of each compound, the mean IC50 of the biological replicates were calculated with standard deviation (SD).

[4] = tested on: Clone 15 HL‐60 promyelocytic leukemia cells; experiment: Anticancer assay (resazurin); type: cell-based, human; details: for IC50: read-out: Anticancer activity, IC50 ± SD, Clone 15 HL‐60; for Preliminary screening, growth inhibition, Clone 15 HL‐60: cutoff 50% growth inhibition at 10 μM; for Selectivity Index SI1 (anticancer): IC50 Vero (Table 2)/IC50 Clone 15 HL‐60
Method: as §4, §5, §6, §7, §8

[5] = Basal cytotoxicity, resazurin assay; details: African green monkey
Method: The assay method is available in the Supinfo S1.
African green monkey kidney epithelial (Vero) cells (Cellonex, South Africa) were cultured and the basal cytotoxicity of the synthesized compounds with antileishmanial and/or anticancer activity was evaluated using the resazurin assay, as described in Mangwegape et al. ^4 Emetine served as the standard cytotoxic drug. Further use of reference drugs, controls, data analysis, calculations and IC50 determinations were identical to that of the antileishmanial assay.

[6] = Leishmania major, THP-1, L. major IR‐173

Row | Compound | IC50 ([1]; Leishmania donovani, THP-1) [µM] | IC50 ([2]; Leishmania donovani, THP-1) [µM] | IC50 [3, 6] [µM] | IC50 (A375 melanoma cells; Homo sapiens, A-375) [µM] | IC50 ([4]; Homo sapiens, HL-60, n = 3) [µM] | Preliminary screening, growth inhibition, Clone 15 HL‐60 [4] | IC50 ([5]; Vero cells (kidney epithelial)) [µM] | Selectivity index SI4 [1] | Selectivity index SI3 [1] | Specificity index SpI2 [1] | Selectivity index SI6 [2] | Selectivity index SI5 [2] | Specificity index SpI3 [2] | Selectivity Index SI1 (anticancer) [4] | IC50 ([4]; n = 3) [µM] | further results
1 | Cc1ccc(S(=O)(=O)N/N=C/c2ccc([N+](=O)[O-])o2)cc1 [2c, (E)-4-Methyl-N'-[(5-nitrofuran-2-yl)methylene]benzenesulfonohydrazide] | > 10 | > 10 | > 10 | > 10 | > 10 | qualified |  |  |  |  |  |  |  |  |  | 
2 | CC(C)(C)c1ccc(S(=O)(=O)N/N=C/c2ccc([N+](=O)[O-])o2)cc1 [2f, (E)-4-(tert-Butyl)-N'-[(5-nitrofuran-2-yl)methylene]benzenesulfonohydrazide] | 6.36 | 9.62 ± 1.15 | > 10 | > 10 |  |  | 29.2 ± 5.86 | 13 | 5 | 0.83 | 9 | 3 | 0.36 | 6 |  | 
3 | O=C1CN(/N=C/c2ccc([N+](=O)[O-])o2)C(=O)N1 [NFT, nitrofurantoin, reference compound] | > 10 | 8.56 ± 1.95 | > 10 | > 10 | > 10 |  |  |  |  |  |  |  |  |  |  | IC50 [5]: > 100 µM
4 | (E)-2,4,6-Trimethyl-N'-[(5-nitrofuran-2-yl)methylene]benzenesulfonohydrazide [2e] |  |  |  |  |  | qualified |  |  |  |  | > 16 | 6 | 0.65 |  | > 10 | IC50 [1]: > 10 µM; IC50 [2]: 6.14 ± 0.83 µM; IC50 ([3]; L. major IR‐173): > 10 µM; IC50 (A375 melanoma cells): > 10 µM
5 | O=[N+]([O-])c1ccc(/C=N/NS(=O)(=O)c2ccc(-c3ccccc3)cc2)o1 [2h, (E)-N'-[(5-Nitrofuran-2-yl)methylene]-(1,1'-biphenyl)-4-sulfonohydrazide] | 2.94 ± 0.3 | 6.29 ± 0.62 | > 10 | 8.05 ± 0.57 |  | qualified | 16.4 ± 5.8 | 17 | 6 | 0.49 | 8 | 3 | 0.24 | 17 |  | Selectivity index SI2 (anticancer) (A375 melanoma cells; IC50 Vero (Table 2)/IC50 A375): 2; Preliminary screening, growth inhibition, A375 (A375 melanoma cells; cutoff 50% growth inhibition at 10 μM): qualified
6 | CC(C)c1ccc(S(=O)(=O)N/N=C/c2ccc([N+](=O)[O-])o2)cc1 [2d, (E)-4-Isopropyl-N'-[(5-nitrofuran-2-yl)methylene]benzenesulfonohydrazide] | > 10 | > 10 | < 10 | > 10 | < 10 |  | 22.2 ± 0.8 |  |  |  |  |  |  | 3 | 7.85 ± 0.38 | Specificity index SpI1 [3]: 0.57; IC50 ([3]; L. major IR‐173): 8.3 ± 0.78 µM; Selectivity index SI2 [3]: 11
7 | O=Cc1ccc([N+](=O)[O-])o1 [NFA, 5‐nitro‐2‐furaldehyde, reference compound] | > 10 | 8.56 ± 0.65 | 8.35 ± 0.89 | > 10 | < 10 |  | 23.2 ± 2.62 |  |  |  | 9 | 3 |  | 2 | 9.45 ± 0.61 | Specificity index SpI1 [3]: 0.87; Selectivity index SI2 [3]: 10; Selectivity index SI1 ([3]; L. major: IC50 Vero/IC50 amastigote): 3
8 | O=[N+]([O-])c1ccc(/C=N/NS(=O)(=O)c2cccc3c2OCCO3)o1 [2l, (E)-N'-[(5-Nitrofuran-2-yl)methylene]-2,3-dihydrobenzo[b][1,4]dioxine-5-sulfonohydrazide] | 6.36 | 7.85 ± 0.21 | > 10 | > 10 | > 10 |  | 41.2 ± 3.3 | > 16 | 6 | 1.45 | > 13 | 5 | 0.92 |  |  | 
9 | O=C(N/N=C/c1ccc([N+](=O)[O-])o1)c1ccc(O)cc1 [NFX, Nifuroxazide, reference compound] | > 10 |  | > 10 | > 10 | 8.97 ± 0.47 |  |  |  |  |  | > 14 | > 14 |  | > 11 |  | IC50 [5]: > 100 µM
